In this assay the test system is CD2F1 mice, L1210 leukemia ip, survival T/C. Nature of the assay: NCI In Vivo Anticancer Drug Screen. Data for tumor model L1210 Leukemia (intraperitoneal) in CD2F1 (CDF1) mice. As to conditions: higher = longer survival. In short, it runs like this:
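Vehicle-treated tumor-bearing mice served as controls (C) for compound-treated mice (T). Reported figure is T divided by C.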

Setting [1] is: endpoint: mean survival time, dose: 50.0 mg/kg/injection, schedule: Q01DX009 (ip), vehicle: Klucel (hydroxypropylcellulose) (HPC).
The mark [2] stands for this setting: endpoint: mean survival time, dose: 100.0 mg/kg/injection, schedule: Q01DX001 (ip), vehicle: saline with Tween-80.
The mark [3] stands for this setting: endpoint: mean survival time, dose: 200.0 mg/kg/injection, schedule: Q01DX001 (ip), vehicle: saline with Tween-80.
[4] abbreviates: endpoint: mean survival time, dose: 400.0 mg/kg/injection, schedule: Q01DX001 (ip), vehicle: saline with Tween-80.
The mark [5] stands for this setting: endpoint: mean survival time, dose: 100.0 mg/kg/injection, schedule: Q01DX009 (ip), vehicle: saline with Tween-80.
[6] abbreviates: endpoint: mean survival time, dose: 200.0 mg/kg/injection, schedule: Q01DX009 (ip), vehicle: saline with Tween-80.
Where [7] appears, read: endpoint: mean survival time, dose: 400.0 mg/kg/injection, schedule: Q01DX009 (ip), vehicle: saline with Tween-80.
Setting [8] is: endpoint: mean survival time, dose: 100.0 mg/kg/injection, schedule: Q04DX003 (ip), vehicle: saline with Tween-80.
Where [9] appears, read: endpoint: mean survival time, dose: 200.0 mg/kg/injection, schedule: Q04DX003 (ip), vehicle: saline with Tween-80.
[10] abbreviates: endpoint: mean survival time, dose: 400.0 mg/kg/injection, schedule: Q04DX003 (ip), vehicle: saline with Tween-80.
Where [11] appears, read: endpoint: mean survival time, dose: 50.0 mg/kg/injection, schedule: Q01DX009 (ip), vehicle: saline.
The mark [12] stands for this setting: endpoint: mean survival time, dose: 100.0 mg/kg/injection, schedule: Q01DX001 (ip), vehicle: saline.
Setting [13] is: endpoint: mean survival time, dose: 200.0 mg/kg/injection, schedule: Q01DX001 (ip), vehicle: saline.

Molecules are shown by their SMILES. Toxic doses and inconclusive results are not listed.

In the case of `Cc1ccccc1N=C(c1ccccc1)C1C(=O)c2ccccc2C1=O`, the T/C was 103 % of control (endpoint: median survival time, dose: 50.0 mg/kg/injection, schedule: Q01DX005 (ip), vehicle: DMSO); 100 % of control (endpoint: median survival time, dose: 100.0 mg/kg/injection, schedule: Q01DX005 (ip), vehicle: DMSO); 103 % of control (endpoint: median survival time, dose: 200.0 mg/kg/injection, schedule: Q01DX005 (ip), vehicle: DMSO); 101 % of control (endpoint: median survival time, dose: 400.0 mg/kg/injection, schedule: Q01DX005 (ip), vehicle: DMSO); 100 % of control (endpoint: median survival time, dose: 800.0 mg/kg/injection, schedule: Q01DX005 (ip), vehicle: DMSO).

For `COc1ccc(C(=O)c2ccc(OC)cc2)cc1`, the T/C was 100 % of control under setting [1]; 93 % of control (endpoint: mean survival time, dose: 100.0 mg/kg/injection, schedule: Q01DX009 (ip), vehicle: Klucel (hydroxypropylcellulose) (HPC)); 86 % of control (endpoint: mean survival time, dose: 200.0 mg/kg/injection, schedule: Q01DX009 (ip), vehicle: Klucel (hydroxypropylcellulose) (HPC)).

In the case of `CCOc1ccccc1Nc1cc(=O)[nH]c(=O)[nH]1`, the T/C was 100 % of control under setting [2], 97 % of control under setting [3] and 92 % of control under setting [4].

Take `O=C(O/N=C(\CN1CCCC1)c1ccc(Cl)cc1)c1ccccc1`: the T/C was 95 % of control (endpoint: mean survival time, dose: 100.0 mg/kg/injection, schedule: Q01DX001 (ip), vehicle: Klucel (hydroxypropylcellulose) (HPC)); 95 % of control (endpoint: mean survival time, dose: 200.0 mg/kg/injection, schedule: Q01DX001 (ip), vehicle: Klucel (hydroxypropylcellulose) (HPC)); 93 % of control (endpoint: mean survival time, dose: 400.0 mg/kg/injection, schedule: Q01DX001 (ip), vehicle: Klucel (hydroxypropylcellulose) (HPC)).

As for `O.O.[Cl][Pt+2][Cl].[NH-]CC1(C[NH-])CCCCC1`, under “endpoint: median survival time, dose: 3.12 mg/kg/injection, schedule: Q04DX003 (ip), vehicle: saline”, the T/C was 121 % of control.

As for `CCCCCCC(=O)/C=C/c1cccc(Cl)c1`, the T/C runs as follows: (endpoint: mean survival time, dose: 100.0 mg/kg/injection, schedule: Q04DX003 (ip), vehicle: Klucel (hydroxypropylcellulose) (HPC)) 104 % of control; (endpoint: mean survival time, dose: 200.0 mg/kg/injection, schedule: Q04DX003 (ip), vehicle: Klucel (hydroxypropylcellulose) (HPC)) 102 % of control; (endpoint: mean survival time, dose: 400.0 mg/kg/injection, schedule: Q04DX003 (ip), vehicle: Klucel (hydroxypropylcellulose) (HPC)) 91 % of control.

With `COc1ccc(N=C/C=C/c2ccccc2)cc1`, the T/C is, setting by setting: under setting [5], 97 % of control; (endpoint: mean survival time, dose: 100.0 mg/kg/injection, schedule: Q04DX003 (ip), vehicle: saline sonified) 96 % of control; under setting [6], 89 % of control; (endpoint: mean survival time, dose: 200.0 mg/kg/injection, schedule: Q04DX003 (ip), vehicle: saline sonified) 103 % of control; under setting [7], 90 % of control; (endpoint: mean survival time, dose: 400.0 mg/kg/injection, schedule: Q04DX003 (ip), vehicle: saline sonified) 97 % of control.

On to `O=[N+]([O-])c1ccccc1-c1cc(-c2ccccc2)nn1-c1ccccc1`, for which the T/C was 102 % of control under setting [5]; 98 % of control under setting [8]; 103 % of control under setting [6]; 98 % of control under setting [9]; 97 % of control under setting [7]; 95 % of control under setting [10].

For the compound `Oc1ccc2ccccc2c1/C=N/N=C/c1c(O)ccc2ccccc12`, the T/C is, setting by setting: (endpoint: mean survival time, dose: 12.5 mg/kg/injection, schedule: Q01DX009 (ip), vehicle: Klucel (hydroxypropylcellulose) (HPC)) 100 % of control; (endpoint: mean survival time, dose: 25.0 mg/kg/injection, schedule: Q01DX009 (ip), vehicle: Klucel (hydroxypropylcellulose) (HPC)) 96 % of control; under setting [1], 104 % of control.

As for `COC(=O)c1cccc2c1ccc1ccccc12`, the T/C (endpoint: mean survival time, dose: 75.0 mg/kg/injection, schedule: Q01DX001 (ip), vehicle: saline) is 91 % of control and the T/C (endpoint: mean survival time, dose: 150.0 mg/kg/injection, schedule: Q01DX001 (ip), vehicle: saline) is 95 % of control.

For the compound `O=C(O)c1cc(-c2ccccc2)nc2ccccc12`, the T/C runs as follows: under setting [2], 103 % of control; under setting [3], 97 % of control; under setting [4], 102 % of control.

As for `Cc1cc(C)c(CC2(C)SCCCS2)c(C)c1`, the T/C reads like this: (endpoint: median survival time, dose: 50.0 mg/kg/injection, schedule: Q04DX002 (ip), vehicle: saline with Tween-80) 100 % of control; (endpoint: median survival time, dose: 100.0 mg/kg/injection, schedule: Q04DX002 (ip), vehicle: saline with Tween-80) 100 % of control; (endpoint: median survival time, dose: 200.0 mg/kg/injection, schedule: Q04DX002 (ip), vehicle: saline with Tween-80) 100 % of control; (endpoint: median survival time, dose: 400.0 mg/kg/injection, schedule: Q04DX002 (ip), vehicle: saline with Tween-80) 110 % of control.

On to `O=C1c2c(O)ccc(O)c2C(=O)c2c(NCCO)ccc(NCCO)c21`, for which the T/C was 103 % of control under setting [5], 110 % of control under setting [6] and 113 % of control under setting [7].

For `CC/C=C\C/C=C\C/C=C\CCCCCCCC(=O)O`, the T/C under setting [8] is 92 % of control, the T/C under setting [9] is 100 % of control and the T/C under setting [10] is 92 % of control.

In the case of `OCC1OC(Oc2ccc(O)cc2)C(O)C(O)C1O` (configuration not stated), the T/C under setting [11] is 103 % of control; the T/C under setting [12] was 101 % of control; the T/C (endpoint: mean survival time, dose: 100.0 mg/kg/injection, schedule: Q01DX009 (ip), vehicle: saline) is 103 % of control; the T/C under setting [13] is 117 % of control; the T/C (endpoint: mean survival time, dose: 200.0 mg/kg/injection, schedule: Q01DX009 (ip), vehicle: saline) was 95 % of control; the T/C (endpoint: mean survival time, dose: 400.0 mg/kg/injection, schedule: Q01DX001 (ip), vehicle: saline) was 101 % of control. In addition, the T/C (endpoint: mean survival time, dose: 400.0 mg/kg/injection, schedule: Q01DX009 (ip), vehicle: saline) was 100 % of control.

`Nc1nc([Se]c2nc(N)nc3c2ncn3C2OC(CO)C(O)C2O)c2ncn(C3OC(CO)C(O)C3O)c2n1` (configuration not stated): the T/C (endpoint: median survival time, dose: 36.0 mg/kg/injection, schedule: Q01DX005 (ip), vehicle: distilled water + Tween-80) is 156 % of control and the T/C (endpoint: median survival time, dose: 60.0 mg/kg/injection, schedule: Q01DX005 (ip), vehicle: distilled water + Tween-80) was 162 % of control.

On to `CC(C#N)C(N)=O` (configuration not stated), for which the T/C reads like this: (endpoint: mean survival time, dose: 12.5 mg/kg/injection, schedule: Q01DX009 (ip), vehicle: saline) 98 % of control; (endpoint: mean survival time, dose: 25.0 mg/kg/injection, schedule: Q01DX009 (ip), vehicle: saline) 101 % of control; under setting [11], 102 % of control.

For the compound `CC[N+](CC)(CC)CC`, the T/C was 110 % of control (endpoint: mean survival time, dose: 0.37 mg/kg/injection, schedule: Q01DX009 (ip), vehicle: saline with Tween-80); 96 % of control (endpoint: mean survival time, dose: 0.75 mg/kg/injection, schedule: Q01DX009 (ip), vehicle: saline with Tween-80); 96 % of control (endpoint: mean survival time, dose: 1.5 mg/kg/injection, schedule: Q01DX009 (ip), vehicle: saline with Tween-80); 100 % of control (endpoint: mean survival time, dose: 3.0 mg/kg/injection, schedule: Q01DX009 (ip), vehicle: saline with Tween-80); 110 % of control (endpoint: mean survival time, dose: 6.0 mg/kg/injection, schedule: Q01DX009 (ip), vehicle: saline with Tween-80); 100 % of control (endpoint: mean survival time, dose: 6.25 mg/kg/injection, schedule: Q04DX003 (ip), vehicle: saline with Tween-80). Besides, the T/C by setting is: (endpoint: mean survival time, dose: 12.0 mg/kg/injection, schedule: Q01DX009 (ip), vehicle: saline with Tween-80) 96 % of control; (endpoint: mean survival time, dose: 12.5 mg/kg/injection, schedule: Q01DX009 (ip), vehicle: saline with Tween-80) 88 % of control; (endpoint: mean survival time, dose: 12.5 mg/kg/injection, schedule: Q04DX003 (ip), vehicle: saline with Tween-80) 100 % of control.

Take `NC(=O)N/N=C1\CC(S(=O)(=O)O)NC(=O)N1` (configuration not stated): the T/C is 98 % of control (endpoint: mean survival time, dose: 50.0 mg/kg/injection, schedule: Q04DX002 (ip), vehicle: saline with Tween-80); 95 % of control (endpoint: mean survival time, dose: 100.0 mg/kg/injection, schedule: Q04DX002 (ip), vehicle: saline with Tween-80); 95 % of control (endpoint: mean survival time, dose: 200.0 mg/kg/injection, schedule: Q04DX002 (ip), vehicle: saline with Tween-80).

`COc1cc(Cc2nccc3ccccc23)cc([N+](=O)[O-])c1OC`: the T/C under setting [2] is 97 % of control, the T/C under setting [3] was 92 % of control and the T/C under setting [4] is 89 % of control.

Consider `OCCc1ccncc1`, for which the T/C is, setting by setting: under setting [12], 103 % of control; under setting [13], 105 % of control.

(Values after PubChem BioAssay AID256 (DTP/NCI, 2004).)
